Laboratory results reported in PMC11242993, “Evaluation of the Therapeutic Potential of Sulfonyl Urea Derivatives as Soluble Epoxide Hydrolase (sEH) Inhibitors” (Molecules, 2024).
≈ marks a conversion by molar mass, not a printed value.

Experiment: Aqueous (kinetic, nephelometric) solubility in PBS
Type: physicochemical
Method: Aliquots of 5 µL of 20.00 mM, 10.00 mM, 5.00 mM, 2.50 mM, 1.25 mM, 0.63 mM, 0.31 mM, 0.16 mM DMSO stock solutions of the control (highly soluble 2′-deoxy-5-fluorouridine and insoluble raloxifen hydrochloride) and the test compounds were loaded in 96-well microplates with clear flat bottoms in duplicates. Then, 250 µL of PBS was dispensed into each well using a Multidrop Combi dispenser to reach the concentrations of 400.0 µM, 200.0 µM, 100.0 µM, 50.0 µM, 25.0 µM, 12.5 µM, 6.25 µM, 3.125 µM for each compound with 2% final DMSO. Then, the resulting solutions were incubated for 15 min at room temperature. The effective range of this assay is approximately 5–200 µM. The solubility of each compound was calculated using the dedicated fitting algorithm. The physical base of nephelometric titration fitting is based on the quick increase in turbidity when a concentration of the tested compound reaches its solubility level. An intersection of the regression line of the high-level turbidity points with the calculated baseline was plotted for each compound. The baseline is a linear regression line plotted for fully soluble control compound DOFU. Each concentration point signal of the test article was compared with the corresponding signal of DOFU. […]

SMILES: O=C(NC12CC3CC(CC(C3)C1)C2)NS(=O)(=O)c1ccc(OC(F)(F)F)cc1 [Compound 4f]
- solubility at 15 min (PBS, pH 7.4, aqueous buffer, kinetic from dmso stock, read-out: Aq. Solubility pH = 7.4): 0.053 mg/mL (≈ 127 µM)
- aqueous solubility (in words) (pH 7.4): moderate aqueous solubility
